Assay results as given in patent US20250198988A1 (priority 2012, published 2025).

Assays:
[1] = system: blood specimen involving acute myeloid leukemia (AML); details: live cells from blood specimen, apoptosis by OD at 600 nm
Procedure: In the MiCK assay cancer cells from a patient are placed in a suspension of a given concentration of single cells or small cell clusters and allowed to adjust to conditions in multiple wells of a microtiter plate. […] The optical density of each well is then measured periodically, typically every few minutes, for a period of typically a few days. As a cell undergoes apoptosis-related blebbing, its optical density increases in a nearly linear fashion.
The assay may proceed by selecting an anti-cancer drug candidate and selecting at least one known cancer cell type on which to test the drug. The cancer cells may be suspended as a single-cell suspension in culture medium, such as RPMI. As used herein, a “single cell suspension” is a suspension of one or more cells in a liquid in which the cells are separated as individuals or in small clumps of 50 cells or fewer. […]
Suspended cells may be tested by placing samples in wells of a spectrophotometric plate. The cells may be suspended at any concentration such that during the spectrophotometric measurements of OD, the beam of the plate reader normally passes through the layer of cells. […]
The drug candidate and any control drugs or other control samples may be added to the wells after the adjustment period. […] Although many drug candidates may be water-soluble, drug candidates that are not readily soluble in water may also be tested.

[2] = system: solid tumor specimen involving lung cancer metastases; assay: MiCK assay of apoptosis on patient solid tumor specimen (Appendix A report); format: cell-based; details: live cells from solid tumor specimen, apoptosis by OD at 600 nm
Source text: Such candidates may be mixed with any appropriate carrier.
Spectrophotometric data may be converted to kinetic units.
Kinetic units may be determined as follows:
KU=(VmaxDrug Treated−Vmaxcontrol)×60X y/(ODcell−ODblank).
Appendix A is a report based on tests conducted on a solid tumor specimen involving lung cancer metastases.

Compound	maximum kinetic units (KU) [1] [KU]	maximum kinetic units (KU) [2] [KU]
O=P1(N(CCCl)CCCl)NCCCO1 (centres unmarked) [Cytoxan, cyclophosphamide]	7.4	
CC(=O)O[C@H]1C(=O)[C@@]2(C)[C@H]([C@H](OC(=O)c3ccccc3)[C@]3(O)C[C@H](OC(=O)[C@H](O)[C@@H](NC(=O)c4ccccc4)c4ccccc4)C(C)=C1C3(C)C)[C@]1(OC(C)=O)CO[C@@H]1C[C@@H]2O [paclitaxel]		7.6
